Results as given in patent publication US7196117B2, “Use of cationic surfactant as activity enhancer in deodorants and oral care” (Laboratorios Miret, S.A., priority 2001, dated 2007).

Legend:
metabolism in rats = type: in vivo
toxicological studies = type: in vivo; settings: animals and humans

CCCCCCCCCCCC(=O)N[C@@H](CCCN=C(N)N)C(=O)OCC.Cl [LAE, ethyl ester of the lauramide of the arginine monohydrochloride]
absorption and metabolism (metabolism in rats): fast absorption and metabolism into naturally-occurring amino acids and the fatty acid lauric acid
toxicity (toxicological studies): completely harmless to animals and humans
